Article PMC11109052, “Metabolism characterization and toxicity of N-hydap, a marine candidate drug for lung cancer therapy by LC–MS method” (Natural Products and Bioprospecting, 2024)

Assays:
[1] = Stability in KPI solution (pH 7.4); type: physicochemical; details: for stability, Accuracy (Bias, %): KPI
Description: To verify the feasibility and reliability of the established method, studies on the linearity, accuracy, precision, and stability of N-hydap in potassium phosphate buffer (KPI, pH 7.4, were prepared by mixing KH2PO4 and K2HPO4 in corresponding proportions, and then adding NaOH and H3PO4 to pH 7.4), plasma, and tissue homogenate were carried out. The peak area ratios (analyte/IS) were plotted against the concentrations of the analytes prepared to obtain the calibration curves. Least squares linear regression analysis was used to determine the slopes, intercepts, and determination coefficients (R^2) which should be 0.99 or above of calibration curves. The standard curve equations were determined as y = 0.0001512x + 0.04394 (R^2 = 0.9980) for KPI, y = 0.001579x − 0.09233 (R^2 = 0.9923) for plasma, and y = 0.002271x + 0.03542 (R^2 = 0.9978) for tissue homogenate (Supplementary Fig. 1A–C).
The stability of the KPI solution was examined after storage at 4 °C for 24 h and incubation at 37 °C for 4 h, which was conducted using the QC samples at three concentrations (five samples for each concentration). Stability in plasma and tissue homogenate was assessed by testing samples stored at both 4 °C and room temperature for 24 h.

Cyp3a11 = test: Real-time PCR mRNA level after 7 days gavage: Cyp3a11 (human homolog CYP3A4); type: in vivo, mice; parameters: key to CYP3A4 mNA expression: ↑: up-regulation; ↓: down-regulation; –: no change
Description: (§1) Mice were randomly divided into four groups, with eight animals in each group. The mice received oral pretreatment with N-hydap for 7 days at doses of 2, 5, and 10 mg/kg/day, which were considered as the low dose, medium dose, and high dose, respectively. Correspondingly, the control group received PBS. On the 8th day, the liver and kidneys were removed, and organs from eight mice per group were combined to prepare MLMs and MKMs using the detailed procedures above. Subsequently, we determined the activity of CYP and UGT enzymes by specific substrate metabolized with MLMs (0.5 mg/mL) and MKMs (0.2 mg/mL) in vitro. Specifically, the following selective substrates were used for the respective enzymes: PH (1 μM) for CYP1A2, DIC (1 μM) for CYP2C9, MP (90 μM) for CYP2C19, DM (1 μM) for CYP2D6, CZX (10 μM) for CYP2E1, Tes (1 μM) for CYP3A4, SN38 (1 μM) for UGT1A1, CACD (100 μM) for UGT1A3, Sero (20 μM) for UGT1A6, and Prop (1 μM) for UGT1A9. All substrates were dissolved in methanol or DMSO. The incubation procedure was carried out as mentioned above, and the reaction was terminated with VER (20 ng/mL) in ESI+ mode and CLP (200 ng/mL) in ESI− mode. In the ex vivo experiments, the activity of enzymes was measured by quantifying the production of various metabolites (nM/mg protein/min). The metabolites and their corresponding enzymes are as follows: APAP from PH, 4-OH-DIC from DIC, 4-OH-MP from MP, DXO from DM, 6-OH-CZX from CZX, 6-OH-Tes from Tes, SN38-G from SN38, CACD-G from CACD, Sero-G from Sero, Prop-G from Prop. The measurements were performed using multiple reaction monitoring (MRM) transitions, which are specific mass spectrometry transitions used for quantification. The optimized parameters for each metabolite, such as declustering potential and collision energy, were described in Supplementary Table 1. All experiments were conducted in triplicate, to ensure accuracy and reproducibility.
Total RNA from liver and kidney samples taken after 7 days of N-hydap gavage was extracted using the Animal Total RNA Isolation Kit (Foregene, Chengdu, Sichuan, China) following the manufacturer’s instructions. The concentrations of total RNA were determined by a nucleic acid concentration tester at 260/280 nm. A HiScript III RT SuperMix for qPCR (+ gDNA wiper) (Vazyme, Nanjing, Jiangsu, China) was used to measure the concentration of the synthesized cDNA. ChamQ SYBR qPCR Master Mix (Vazyme, Nanjing, Jiangsu, China) and detection were performed using a Light Cycler 480 II (ROCHE, Basel, Switzerland). Real-time PCR was used to analyze the relative mRNA levels of Cyp1a2, Cyp2b10, Cyp2c39, Cyp2d22, Cyp2e1, Cyp3a11, Ugt1a1, Ugt1a6a and Ugt1a9 (human homologs: CYP1A2, CYP2B6, CYP2C19, CYP2D6, CYP2E1, CYP3A4, UGT1A1, UGT1A6, and UGT1A9) in the liver, kidneys, and intestines. […]

Ugt1a1 = test: DME activity ex vivo in MLMs and MKMs: UGT1A1 (SN38-G from SN38); parameters: species or system mice; key to UGT1A1 Enzymatic activity: ↑: up-regulation; ↓: down-regulation; –: no change
Description: as §1

CC1CCC2C(C=CC(C)C2C(=O)c2c(O)c(C3(O)CCC(O)C4OC43)cn(O)c2=O)C1 (centres unmarked) [N-hydap, N-Hydroxyapiosporamide]
results of the stability experiments ([1]; KPI solution, plasma and tissue homogenate, all storage conditions): no significant degradation | stability, Accuracy (Bias, %) ([1]; 200 nM, 4℃ for 24h): 113.85% | stability, Accuracy (Bias, %) ([1]; 200 nM, 37℃ for 4h): 87.75% | stability, Accuracy (Bias, %) ([1]; 600 nM, 4℃ for 24h): 105.48% | stability, Accuracy (Bias, %) ([1]; 600 nM, 37℃ for 4h): 85.75% | stability, Accuracy (Bias, %) ([1]; 2500 nM, 4℃ for 24h): 104.40% | stability, Accuracy (Bias, %) ([1]; 2500 nM, 37℃ for 4h): 97.32% | CYP3A4 mNA expression (Cyp3a11; Kidney): ↑ | CYP3A4 mNA expression (Cyp3a11; Liver): ↑ | mRNA levels of Cyp3a11 (Cyp3a11; mice, 2, 5, 10 mg/kg p.o. 7 days, intestines): slight reduction | increase of mRNA levels of Cyp3a11 (Cyp3a11; mice, 2, 5, 10 mg/kg p.o. 7 days, liver and kidneys): 78%-160% | UGT1A1 Enzymatic activity (Ugt1a1; Kidney): – | UGT1A1 Enzymatic activity (Ugt1a1; Liver): ↑ | elevation of formation rate of SN38-G (Ugt1a1; MLMs, range stated jointly for APAP, SN38-G, 6-OH-Tes and CDCA-G): 12%-331%
